Source: US20220041532A1, “HYDROFLUOROOLEFINS AND METHODS OF USING SAME” (3M INNOVATIVE PROPERTIES COMPANY, priority 2018, published 2022)

Assays:
[1] = Largest Soluble Hydrocarbon (LSH) test; type: physicochemical; details: hydrofluoroolefin:hydrocarbon about 1:1 to 1:2 by weight
Description: Largest Soluble Hydrocarbon (LSH): The LSH of each hydrofluoroolefin compound was determined by mixing the compound with hydrocarbons of varying molecular weight (CnH2n+2, where n=9 to 24) in a hydrofluoroolefin:hydrocarbon ratio of about 1:1 to 1:2 by weight at room temperature (25° C.) and at 50° C. […] A larger value of n is interpreted herein to indicate a greater ability of the hydrofluoroolefin to clean hydrocarbons.
The results presented in Table 2 indicate that the hydrofluoroolefins of the present invention are highly suitable fluids for cleaning applications.

[2] = Atmospheric lifetime from rates of reaction with hydroxyl radicals; type: physicochemical; details: Degrades by direct photolysis and ozonolysis; value stated as 'Likely'
Description: Atmospheric lifetime: The atmospheric lifetimes of hydrobromofluoroolefin Examples 1-3 were determined from their rates of reaction with hydroxyl radicals. The pseudo-first order rate for the reaction of the gaseous hydrobromofluoroolefin with hydroxyl radical was measured in a series of experiments relative to reference compounds such as chloromethane and ethane. The measurements were performed in a 5.7 L, heated FTIR gas cell equipped with a polished semiconductor-grade quartz window. An Oriel Instruments UV Lamp, Model 66921 equipped with a 480W mercury-xenon bulb was used to generate hydroxyl radicals by photolyzing ozone in the presence of water vapor. The concentrations of the hydrobromofluoroolefin and the reference compound were measured as a function of reaction time using an I-Series FTIR from Midac Corporation. The atmospheric lifetime was calculated from the reaction rates for the hydrobromofluoroolefin relative to the reference compounds and the reported lifetime of the reference compounds as shown below:
where τx is the atmospheric lifetime of hydrobromofluoroolefin, τr is the atmospheric lifetime of the reference compound, and kx and kr are the rate constants for the reaction of hydroxyl radical with hydrobromofluoroolefin and the reference compound, respectively.
The atmospheric lifetimes of Examples 1-3 were determined from their rates of reaction with hydroxyl radicals as described above and are reported in Table 3.

[3] = 25° C., longest hydrocarbon compatible without haze
[4] = 50° C., >23 = miscible with C23H48 without haze

SMILES	LSH (n in CnH2n+2) [1, 3]	LSH (n in CnH2n+2) [1, 4]	Atmospheric Lifetime [2]
FC(=CBr)C(F)(F)F [Example 1, 1-bromo-2,3,3,3-tetrafluoroprop-1-ene]	19	>23	ozonolysis. Likely <0.05 years
FC(=CBr)C(F)(F)C(F)(F)F [Example 2, 1-bromo-2,3,3,4,4,4-hexafluorobut-1-ene]	19	>23	ozonolysis. Likely <0.05 years
FC(=CBr)C(F)F [Example 3, 1-bromo-2,3,3-trifluoroprop-1-ene]	19	>23	ozonolysis. Likely <0.05 years
FC(=CBr)C(F)(F)C(F)(F)C(F)F [Example 4, I-bromo-2,3,3,4,4,5,5-heptafluoropent-1-ene]	19	>23	
FC(=CCl)C(F)(F)C(F)(F)C(F)(F)F [Example 5, 1-chloro-2,3,3,4,4,5,5,5-pent-1-ene]	17	22	
FC(=CCl)C(F)(F)C(F)(F)F [Example 6, 1-chloro-2,3,3,4,4,4-but-1-ene]	19		
FC(=CCl)C(F)(F)OC(F)(F)F [Example 7, 1-chloro-2,3,3-trifluoro-3-(trifluoromethoxy)prop-1-ene]	19	>23	
FC(=CCl)N1C(F)(F)C(F)(F)OC(F)(F)C1(F)F [Example 8, 4-(2-chloro-1-fluoro-vinyl)-2,2,3,3,5,5,6,6-octafluoro-morpholine]	14	18	
FC(=CCl)C(F)(F)N(C(F)(F)F)C(F)(F)C(F)(F)F [Example 9, 3-chloro-1,1,2-trifluoro-N-(1,1,2,2,2-pentafluoroethyl)-N-(trifluoromethyl)prop-2-en-1-amine]	13	17	
FC(=CCl)C(F)C(F)(F)F (stereo not drawn) [Example 10, 1-chloro-2,3,4,4,4-pentafluoro-but-1-ene]	19	>23	
FC(=CCl)C(F)OC(F)(F)F (stereo not drawn) [Example 11, 1-chloro-2,3-difluoro-3-(trifluoromethoxy)prop-1-ene]	18	>23	
